These results are taken from patent publication US5166398A, “4-oxy-substituted phenoxyalkyl carboxylic acid, ester, and alcohol derivatives as antihyper-cholesterolemic and antiatherosclerotic agents” (Warner-Lambert Co., priority 1991, dated 1992).

Structures are written as SMILES. Some results are limits rather than exact numbers.

In one test the target is T1, acyl-CoA:cholesterol acyltransferase (ACAT) (Oryctolagus cuniculus, UniProt G1SFD9).
T1 construct: rabbit intestinal microsomal fraction; from tissue; host or cells: rabbit intestine, microsomal fraction
T1 sequence (G1SFD9 1-524): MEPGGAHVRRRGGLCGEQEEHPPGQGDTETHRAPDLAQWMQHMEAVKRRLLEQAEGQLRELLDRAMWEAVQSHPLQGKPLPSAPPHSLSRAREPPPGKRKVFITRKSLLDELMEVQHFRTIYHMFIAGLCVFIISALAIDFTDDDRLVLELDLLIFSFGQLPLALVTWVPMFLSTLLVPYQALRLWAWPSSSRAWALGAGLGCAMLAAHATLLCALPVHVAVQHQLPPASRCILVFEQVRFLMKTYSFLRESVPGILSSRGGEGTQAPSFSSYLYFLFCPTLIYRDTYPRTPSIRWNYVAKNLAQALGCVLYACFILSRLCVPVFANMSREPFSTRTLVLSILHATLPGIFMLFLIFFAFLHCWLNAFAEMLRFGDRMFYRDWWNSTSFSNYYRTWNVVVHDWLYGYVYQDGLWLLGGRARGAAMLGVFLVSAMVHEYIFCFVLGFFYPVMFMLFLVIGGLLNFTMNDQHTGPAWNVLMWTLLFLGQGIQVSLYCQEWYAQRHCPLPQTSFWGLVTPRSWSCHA
In words: inhibition of cholesterol esterification by ACAT, rabbit intestinal microsomal fraction (cholesteryl oleate formation from endogenous cholesterol and exogenous 14C-oleoyl-CoA). It counts as biochemical. The note with it: rabbit intestinal microsomes; in vitro; read-out: IC50, concentration of test compound required to inhibit cholesteryl oleate formation to 50% of control. As to the method:
The compounds of the present invention were tested for their ability to inhibit the esterification of cholesterol by the enzyme acyl-CoA:cholesterol acyltransferase (ACAT). The data in the table below is expressed as IC50 values, i.e., the concentration of test compound required to inhibit cholesteryl oleate formation to 50% of control.
The in vitro test employed is more fully described in Field, F. J. and Salome, R. G., Biochemica et Biophysica Acta, Vol. 712, pages 557-570 (1982). The assay evaluates the ability of a test compound to inhibit the esterification of cholesterol using endogenous cholesterol of a rabbit intestinal microsomal fraction and exogenous ^14 C-oleoyl-CoA as reactants.
For `COC(=O)C(C)(C)CCCOc1cc(C)c(OC(=O)Nc2c(C(C)C)cccc2C(C)C)cc1C` [Example 15, 5-[4-[[[[2,6-Bis(1-methylethyl)phenyl]amino]carbonyl]oxy]-2,5-dimethylphenoxy]-2,2-dimethylpentanoic acid, methyl ester], the IC50 was > 5 µM.

Tested on in the next test: not listed separately
In words: elevation of HDL at 50 mg/kg relative to gemfibrozil 50 mg/kg (procedure of U.S. Pat. No. 4,413,011). The test is classed as in vivo. The note with it: ratio of HDL elevation, test drug 50 mg/kg vs gemfibrozil 50 mg/kg; 1 = as effective as gemfibrozil. As to the method: Additionally, the elevation of HDL is reported in the table as a ratio of the elevation of HDL effected by a dose of 50 mg/kg of the test drug divided by the elevation of HDL effected by a 50 mg/kg dose of gemfibrozil which is used as a control in each experiment. [formula] Thus, a figure of 1 means that the test drug was as effective as gemfibrozil in elevating HDL. […] The test procedure is described in U.S. Pat. No. 4,413,011 which is herein incorporated by reference.
As to `COC(=O)C(C)(C)CCCOc1cc(C)c(OCc2ccccc2)c(C)c1C` [Example 8, 2,2-Dimethyl-5-[2,3,5-trimethyl-4-(phenylmethoxy)phenoxy]pentanoic acid, methyl ester], the “Δ HDL Test Compound / Δ HDL Gemfibrozil” value is on record as 1.0.
Still for that read-out and setting: the result for `Cc1cc(OCCCC(C)(C)C(=O)O)c(C)c(C)c1OCc1ccccc1` [Example 9, 2,2-Dimethyl-5-[2,3,5-trimethyl-4-(phenylmethoxy)-phenoxy]pentanoic acid] reads 0.9.
On the same count and under the same terms, next, `COC(=O)C(C)(C)CCCOc1c(C)cc(OC(=O)C(C)(C)C)c(C)c1C` [Example 7, 5-[4-(2,2-Dimethyl-1-oxopropoxy)-2,3,6-trimethylphenoxy]-2,2 dimethylpentanoic acid, methyl ester]: 1.1; `Cc1cc(OCCCC(C)(C)CO)c(C)c(C)c1OCc1ccccc1` [Example 10]: 0.9.
Consider `COc1cc(C)c(OCCCC(C)(C)C(=O)O)cc1C` [Example 4, 5-(4-Methoxy-2,5-dimethylphenoxy)-2,2-dimethylpentanoic acid], for which the “Δ HDL Test Compound / Δ HDL Gemfibrozil” value was 1.2.
With `Cc1cc(OCc2ccccc2)c(C)cc1OCCCC(C)(C)C(=O)O` [Example 14, 5-[2,5-Dimethyl-4-(phenylmethoxy)phenoxy]-2,2-dimethylpentanoic acid], the “Δ HDL Test Compound / Δ HDL Gemfibrozil” value is on record as 1.0.
On to `COC(=O)C(C)(C)CCCOc1cc(C)c(OCc2ccccc2)c(C)c1` [Example 11, 5-[3,5-Dimethyl-4-(phenylmethoxy)phenoxy]-2,2-dimethylpentanoic acid, methyl ester], for which the “Δ HDL Test Compound / Δ HDL Gemfibrozil” value is listed as 1.2.
Still for that read-out and setting: the result for `CCCCOc1cc(C)c(OCCCC(C)(C)C(=O)O)cc1C` [Example 5, 5-(4-Butoxy-2,5-dimethylphenoxy)-2,2-dimethylpentanoic acid] reads 0.9.
`CCOc1cc(C)c(OCCCC(C)(C)C(=O)OC)cc1C` [Example 3, 5-(4-Ethoxy-2,5 dimethylphenoxy)-2,2 dimethylpentanoic acid, methyl ester]: the “Δ HDL Test Compound / Δ HDL Gemfibrozil” value is given as 1.2.
As for `CCOc1cc(C)c(OCCCC(C)(C)C(=O)O)cc1C` [Example 6, 5-(4-Ethoxy-2,5-dimethylphenoxy)-2,2-dimethylpentanoic acid], the “Δ HDL Test Compound / Δ HDL Gemfibrozil” value was found to be 1.4.
For `CCCCOc1cc(C)c(OCCCC(C)(C)C(=O)OC)cc1C` [Example 2, 5-(4-Butoxy-2,5-dimethylphenoxy)-2,2-dimethylpentanoic acid, methyl ester], the “Δ HDL Test Compound / Δ HDL Gemfibrozil” value is 0.85.

A further test has as its system coronary heart disease.
Experiment: not given
To be noted: human, in vivo; cited from earlier work.
Take `Cc1ccc(C)c(OCCCC(C)(C)C(=O)O)c1` [gemfibrozil]: the “effect on HDL (in words)” value is reported as “elevates HDL” and the “effect on LDL (in words)” value is given as “lowers LDL”.

Staying with this test, now noted: patients with elevated cholesterol levels; five-year trial; cited from earlier work.
As for `Cc1ccc(C)c(OCCCC(C)(C)C(=O)O)c1` [gemfibrozil], the “reduction of the rate of heart attack and sudden cardiac death” value is 34%.
